For seven compounds, IC50 and EC50 results are on record in US10344026B2, “Compositions and methods of targeting mutant K-ras” (NANTBIO, INC., priority 2017, dated 2019).

A value given as a limit tells only on which side of the number the result lay.

Holding throughout (type): cell-based
In one experiment the test system is HCT116-G31D. The experiment in a line: Viability assay (CellTiterBlue, 72 hr) HCT116. Conditions: Homo sapiens, HCT-116, GI50, CellTiterBlue, HCT116 K-Ras G13D, read-out: 72 hr Cell Viability HCT116 (G13D). As for the experimental part: (§1) Viability assays were performed on exemplary compounds and Table 2 below lists exemplary results for selected compounds tested on K-Ras wild type cell lines (Ishikawa, U87-MG, HCC827, and A375) and various K-Ras mutant cell lines (Panc1-G12D; Panc10.05-G12D; HCT116-G31D). Results are expressed in μM and corresponding structures are shown in FIGS. 2A-2G and Examples 1-152, above.
(§2) Cells are counted and seeded at 1000 cells/36 ul medium/well into 384-well microplates. Cells are returned to 37° C. CO2 incubator for 18 hr. Drug is made as 200× in DMSO and diluted into medium to 10×. To each well is added 4 ul 10× drug, and plates are returned to the incubator. Final assay DMSO concentration is 0.5%. After 72 hr, 8 ul CellTiterBlue (Promega) is added to each well. After 3 hr, fluorescence (Ex550/Em590) is determined on the Victor Plate Reader (Perkin Elmer). Assay range is determined by DMSO control (100% viability) and 100 uM tamoxifen (0% viability). GI50 values are calculated using Graphpad Prism.
On the technique in general: Resazurin is reduced to fluorescent resorufin, in cell work by metabolically active cells.

The test system of another experiment is Panc1-G12D. Description: Viability assay (CellTiterBlue, 72 hr) Panc1. Conditions: Homo sapiens, PANC-1, GI50, CellTiterBlue, Panc1 K-Ras G12D, read-out: 72 hr Cell Viability Panc1 (G12D). As for the experimental part: as §1, §2
The test system of the next experiment is Panc10.05-G12D. The experiment in a line: Viability assay (CellTiterBlue, 72 hr) Panc10.05. The following applies: Homo sapiens, Panc1005, GI50, CellTiterBlue, Panc10.05 K-Ras G12D, read-out: 72 hr Cell Viability Panc10.05 (G12D). As for the experimental part: as §1, §2
The test system of experiment [1] is phospho-Akt in Panc10.05 (G12D). The experiment in a line: In-Cell Western phospho-Akt, Panc10.05. The following applies: Homo sapiens, Panc1005, 1 h; Panc10.05, one hour treatment; read-out: In-Cell Western Panc10.05 (G12D) Akt (P). As for the experimental part: (§3) In-cell phosphorylation assays for Erk and Akt were performed on several of the compounds and exemplary results are shown in Table 3 below using HCC827 and A375 cell lines for wild type K-Ras and Panc1 and Panc10.05 cell lines for G12D K-Ras mutants. Results are expressed in μM and corresponding structures are shown in FIGS. 2A-2G and Examples 1-152, above.
(§4) Cells are seeded in complete medium into black sided, clear-bottom 384-well microplates at 3000 cells/[…]/well. Plates are returned to 37° C. CO2 incubator for 18 hr. Drug is made as 200× in DMSO and diluted into medium to 10×. To each well is added 4 ul 10× test article or controls, and plates are returned to the incubator. Final assay DMSO concentration is 0.5%. After one hour, cells are fixed in formaldehyde, rinsed & permeabilized with triton X-100, and blocked with BSA/Goat serum blocking solution. Primary phospho-Akt and phospho-ERK antibodies are added and plates are incubated overnight at 4° C. Plates are rinsed with Tween-20 wash buffer and secondary antibody (Goat anti-rabbit, Thermofisher) is added. After 2 hours, plates are rinsed in Tween-20 wash buffer, and then PBS. Plates are imaged on the Celigo (Nexcelom) and cellular fluorescence is quantitated. Full inhibition of phospho-Akt is achieved with 1 uM BEZ235 (Sellekchem), while full inhibition of phospho-ERK is achieved with 1 uM MEK Inhibitor II Calbiochem). EC50 values are calculated using Graphpad Prism.

For experiment [2], the system named is phospho-Akt in Panc1 (G12D). The experiment in a line: In-Cell Western phospho-Akt, Panc1. The following applies: Homo sapiens, PANC-1, 1 h; Panc1, one hour treatment; read-out: In-Cell Western Panc1 (G12D) Akt (P). As for the experimental part:
as §3, §4

The subject of experiment [3] is U87-MG (K-Ras wild type cell line). Description: Viability assay (CellTiterBlue, 72 hr) U87-MG. Conditions: Homo sapiens, U-87 MG, GI50, CellTiterBlue, U87-MG K-Ras wild-type. As for the experimental part:
as §1, §2

For experiment [4], the system named is Ishikawa (K-Ras wild type cell line). The experiment in a line: Viability assay (CellTiterBlue, 72 hr) Ishikawa. The following applies: Homo sapiens, GI50, CellTiterBlue, Ishikawa K-Ras wild-type. As for the experimental part:
as §1, §2

For experiment [5], the system named is phospho-ERK in Panc1 (G12D). Description: In-Cell Western phospho-ERK, Panc1. Conditions: Homo sapiens, PANC-1, 1 h; Panc1, one hour treatment; read-out: In-Cell Western Panc1 (G12D) Erk (P). As for the experimental part: as §3, §4
Experiment [6] deals with phospho-ERK in Panc10.05 (G12D). Description: In-Cell Western phospho-ERK, Panc10.05. Conditions: Homo sapiens, Panc1005, 1 h; Panc10.05, one hour treatment; read-out: In-Cell Western Panc10.05 (G12D) Erk (P). As for the experimental part: as §3, §4

For the compound `Cc1nc(NS(C)(=O)=O)sc1C(=O)Nc1nc(-c2ccc3c(c2)CCC(=O)N3)cs1` [Compound 13, 4-methyl-2-(methylsulfonamido)-N-(4-(2-oxo-1,2,3,4-tetrahydroquinolin-6-yl)thiazol-2-yl)thiazole-5-carboxamide], the IC50 was 21 µM with HCT116-G31D; over 25 µM in the experiment with Panc1-G12D; over 25 µM in the experiment on Panc10.05-G12D; over 25 µM in experiment [3]; over 25 µM in experiment [4]. Moreover, the EC50 in experiment [1] and in experiment [2] was over 25 µM each time.
For `Cc1nc(C2CCCCC2)sc1C(=O)Nc1nc(-c2ccc3c(c2)CCC(=O)N3)cs1` [Compound 146, 2-cyclohexyl-4-methyl-N-(4-(2-oxo-1,2,3,4-tetrahydroquinolin-6-yl)thiazol-2-yl)thiazole-5-carboxamide], the IC50 is over 25 µM in the experiment with HCT116-G31D, 13 µM in the experiment with Panc1-G12D, 8 µM with Panc10.05-G12D and over 25 µM in experiment [4]. In addition, the EC50 is over 25 µM in [1], over 25 µM in experiment [2], 5 µM in experiment [5] and 9 µM in experiment [6].
Turning to `Cc1nc(C2CCN(C)CC2)sc1C(=O)Nc1nc(-c2ccc3c(c2)CCC(=O)N3)cs1` [Compound 16, 4-methyl-2-(1-methylpiperidin-4-yl)-N-(4-(2-oxo-1,2,3,4-tetrahydroquinolin-6-yl)thiazol-2-yl)thiazole-5-carboxamide], the IC50 was 9 µM in the experiment with HCT116-G31D; 3 µM in the experiment with Panc1-G12D; 11 µM in the experiment on Panc10.05-G12D; over 25 µM in experiment [3]; over 25 µM in experiment [4]. Further, the EC50 in experiment [1] and in experiment [2] was over 25 µM in each case.
Turning to `CCc1nc(C)c(C(=O)Nc2nc(-c3ccc4c(c3)CCC(=O)N4Cc3ccncc3)cs2)o1` [Compound 65, 2-ethyl-4-methyl-N-(4-(2-oxo-1-(pyridin-4-ylmethyl)-1,2,3,4-tetrahydroquinolin-6-yl)thiazol-2-yl)oxazole-5-carboxamide], the IC50 in the experiment on HCT116-G31D is over 25 µM; in the experiment with Panc1-G12D, over 25 µM; with Panc10.05-G12D, 15 µM; in experiment [3], over 25 µM; in experiment [4], over 25 µM. For the same compound, the EC50 in experiment [2], in [5] and in experiment [6] was over 25 µM in each case.
In the case of `CC(=O)Nc1nc(C)c(C(=O)Nc2nc(-c3ccc4c(c3)CCC(=O)N4)cs2)s1` [Compound 14, 2-acetamido-4-methyl-N-(4-(2-oxo-1,2,3,4-tetrahydroquinolin-6-yl)thiazol-2-yl)thiazole-5-carboxamide], the IC50 is over 25 µM in the experiment on HCT116-G31D; over 25 µM in the experiment on Panc1-G12D; 6 µM in the experiment with Panc10.05-G12D; over 25 µM in experiment [3]; over 25 µM in experiment [4]. Also, the EC50 was over 25 µM in [2], over 25 µM in experiment [5] and 26 µM in experiment [6].
On to `Cc1nc(NC(=O)Nc2ccccc2)sc1C(=O)Nc1nc(-c2ccc3c(c2)CCC(=O)N3)cs1` [Compound 15], for which the IC50 was over 25 µM in the experiment with HCT116-G31D; over 25 µM in the experiment with Panc1-G12D; 1.3 µM with Panc10.05-G12D; 15 µM in experiment [3]; 15 µM in experiment [4]. Moreover, the EC50 is over 25 µM in [1], 2 µM in experiment [5] and over 25 µM in experiment [6].
In the case of `Cc1nc(C)c(C(=O)Nc2nc(-c3ccc4c(c3)CCC(=O)N4)c(Cl)s2)s1` [Compound 144, N-(5-chloro-4-(2-oxo-1,2,3,4-tetrahydroquinolin-6-yl)thiazol-2-yl)-2,4-dimethylthiazole-5-carboxamide], the IC50 in the experiment on HCT116-G31D was over 25 µM; with Panc1-G12D it was 8 µM; with Panc10.05-G12D it was 10 µM; in experiment [3], 11 µM; in [4], over 25 µM. The EC50 in experiment [1] was over 25 µM; in experiment [2] it was 16 µM; in [5], 6 µM; in experiment [6], 10 µM.
